Laboratory results as given in paper PMC4770307, “New Synthetic Routes to Triazolo-benzodiazepine Analogues: Expanding the Scope of the Bump-and-Hole Approach for Selective Bromo and Extra-Terminal (BET) Bromodomain Inhibition” (Journal of Medicinal Chemistry, 2015).

How the values were obtained:
Brd2(1)W097F = molecular target: T1, Brd2(1)W097F (Homo sapiens, UniProt P25440, W97F); experiment: Differential scanning fluorimetry (DSF) thermal shift; assay type: binding; details: compound 10 μM (LightCycler480) or 30 μM (Mx3005P), read-out: Thermal stabilization (ΔTm)
T1 construct: first bromodomain (e.g., Brd2(1)) versus second bromodomain (e.g., Brd2(2)); His6 (TEV-cleavable) (N); made in house; host or cells: E. coli BL21(DE3)
T1 sequence (P25440 74-180 W97F limits assumed): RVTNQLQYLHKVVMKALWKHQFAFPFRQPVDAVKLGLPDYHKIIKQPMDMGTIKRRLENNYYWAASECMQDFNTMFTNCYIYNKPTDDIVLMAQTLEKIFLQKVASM

Brd2(1)W097H = molecular target: T2, Brd2(1)W097H (Homo sapiens, UniProt P25440, W97H); experiment: as above; assay type: binding; details: compound 10 μM (LightCycler480) or 30 μM (Mx3005P), read-out: Thermal stabilization (ΔTm)
T2 construct: first bromodomain (e.g., Brd2(1)) versus second bromodomain (e.g., Brd2(2)); His6 (TEV-cleavable) (N); made in house; host or cells: E. coli BL21(DE3)
T2 sequence (P25440 74-180 W97H limits assumed): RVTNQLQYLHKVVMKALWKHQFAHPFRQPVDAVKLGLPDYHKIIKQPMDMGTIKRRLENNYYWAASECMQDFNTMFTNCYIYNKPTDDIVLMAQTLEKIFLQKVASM

Brd2(1) [1] = molecular target: T3, Brd2(1) (Homo sapiens, UniProt P25440); experiment: as above; assay type: binding; details: compound 10 μM (LightCycler480) or 30 μM (Mx3005P), read-out: Thermal stabilization (ΔTm)
T3 construct: first bromodomain (e.g., Brd2(1)) versus second bromodomain (e.g., Brd2(2)); His6 (TEV-cleavable) (N); made in house; host or cells: E. coli BL21(DE3); plasmid a gift of the SGC Oxford
T3 sequence (P25440 74-180 limits assumed): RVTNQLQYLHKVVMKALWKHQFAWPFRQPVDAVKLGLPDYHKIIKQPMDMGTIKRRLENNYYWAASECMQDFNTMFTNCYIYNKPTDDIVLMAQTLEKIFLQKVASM

Brd2(2)W370F = molecular target: T4, Brd2(2)W370F (Homo sapiens, UniProt P25440, W370F); experiment: as above; assay type: binding; details: compound 10 μM (LightCycler480) or 30 μM (Mx3005P), read-out: Thermal stabilization (ΔTm)
T4 construct: first bromodomain (e.g., Brd2(1)) versus second bromodomain (e.g., Brd2(2)); His6 (TEV-cleavable) (N); made in house; host or cells: E. coli BL21(DE3)
T4 sequence (P25440 344-453 W370F limits assumed): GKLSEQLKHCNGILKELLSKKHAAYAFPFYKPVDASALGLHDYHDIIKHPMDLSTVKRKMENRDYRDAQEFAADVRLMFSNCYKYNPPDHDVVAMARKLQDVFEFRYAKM

Brd2(2) [2] = molecular target: T5, Brd2(2) (Homo sapiens, UniProt P25440); experiment: as above; assay type: binding; details: compound 10 μM (LightCycler480) or 30 μM (Mx3005P), read-out: Thermal stabilization (ΔTm)
T5 construct: first bromodomain (e.g., Brd2(1)) versus second bromodomain (e.g., Brd2(2)); His6 (TEV-cleavable) (N); made in house; host or cells: E. coli BL21(DE3); plasmid a gift of the SGC Oxford
T5 sequence (P25440 344-453 limits assumed): as the sequence (P25440 344-453 W370F limits assumed) above, with F27W counted along it

Brd2(2)W370H = molecular target: T6, Brd2(2)W370H (Homo sapiens, UniProt P25440, W370H); experiment: as above; assay type: binding; details: compound 10 μM (LightCycler480) or 30 μM (Mx3005P), read-out: Thermal stabilization (ΔTm)
T6 construct: first bromodomain (e.g., Brd2(1)) versus second bromodomain (e.g., Brd2(2)); His6 (TEV-cleavable) (N); made in house; host or cells: E. coli BL21(DE3)
T6 sequence (P25440 344-453 W370H limits assumed): as the sequence (P25440 344-453 W370F limits assumed) above, with F27H counted along it

[3] = system: leucine/alanine mutant BET bromodomains; parameters: method as in PMID 25323695; details: cited from earlier work
Brd2(2) [4] = details: reported Kd; cited from earlier work
Brd2(2)V376A = molecular target: T7, Brd2(2)V376A (Homo sapiens, UniProt P25440, V376A); experiment: Differential scanning fluorimetry (DSF) thermal shift; assay type: binding; details: compound 10 μM (LightCycler480) or 30 μM (Mx3005P), read-out: Thermal stabilization (ΔTm)
T7 construct: first bromodomain (e.g., Brd2(1)) versus second bromodomain (e.g., Brd2(2)); His6 (TEV-cleavable) (N); made in house; host or cells: E. coli BL21(DE3)
T7 sequence (P25440 344-453 V376A limits assumed): as the sequence (P25440 344-453 W370F limits assumed) above, with F27W, V33A counted along it

Brd2(1)V103A = molecular target: T8, Brd2(1)V103A (Homo sapiens, UniProt P25440, V103A); experiment: as above; assay type: binding; details: compound 10 μM (LightCycler480) or 30 μM (Mx3005P), read-out: Thermal stabilization (ΔTm)
T8 construct: first bromodomain (e.g., Brd2(1)) versus second bromodomain (e.g., Brd2(2)); His6 (TEV-cleavable) (N); made in house; host or cells: E. coli BL21(DE3)
T8 sequence (P25440 74-180 V103A limits assumed): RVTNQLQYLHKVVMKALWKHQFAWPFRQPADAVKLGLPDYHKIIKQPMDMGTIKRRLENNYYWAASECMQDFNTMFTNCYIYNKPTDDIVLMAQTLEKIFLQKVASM

[5] = system: WT and mutant Brd2(1) and Brd2(2) proteins; experiment: DSF, WT and mutant proteins (statements in words); assay type: binding; details: mutant compared with WT Brd2 proteins
Brd2(2)L383I [6] = molecular target: T9, Brd2(2)L383I (Homo sapiens, UniProt P25440, L383I); experiment: Differential scanning fluorimetry (DSF) thermal shift; assay type: binding; details: compound 10 μM (LightCycler480) or 30 μM (Mx3005P), read-out: Thermal stabilization (ΔTm)
T9 construct: first bromodomain (e.g., Brd2(1)) versus second bromodomain (e.g., Brd2(2)); His6 (TEV-cleavable) (N); made in house; host or cells: E. coli BL21(DE3)
T9 sequence (P25440 344-453 L383I limits assumed): as the sequence (P25440 344-453 W370F limits assumed) above, with F27W, L40I counted along it

Brd2(1)L110A [7] = molecular target: T10, Brd2(1)L110A (Homo sapiens, UniProt P25440, L110A); experiment: as above; assay type: binding; details: compound 10 μM (LightCycler480) or 30 μM (Mx3005P), read-out: Thermal stabilization (ΔTm)
T10 construct: first bromodomain (e.g., Brd2(1)) versus second bromodomain (e.g., Brd2(2)); His6 (TEV-cleavable) (N); made in house; host or cells: E. coli BL21(DE3)
T10 sequence (P25440 74-180 L110A limits assumed): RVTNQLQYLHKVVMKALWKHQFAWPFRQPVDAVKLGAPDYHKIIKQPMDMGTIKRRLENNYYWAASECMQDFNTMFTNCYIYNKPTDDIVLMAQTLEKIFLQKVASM

Brd2(2)L383A [8] = molecular target: T11, Brd2(2)L383A (Homo sapiens, UniProt P25440, L383A); experiment: as above; assay type: binding; details: compound 10 μM (LightCycler480) or 30 μM (Mx3005P), read-out: Thermal stabilization (ΔTm)
T11 construct: first bromodomain (e.g., Brd2(1)) versus second bromodomain (e.g., Brd2(2)); His6 (TEV-cleavable) (N); made in house; host or cells: E. coli BL21(DE3)
T11 sequence (P25440 344-453 L383A limits assumed): as the sequence (P25440 344-453 W370F limits assumed) above, with F27W, L40A counted along it

Brd2(2) [9] = experiment: Isothermal titration calorimetry (ITC); assay type: binding; details: Brd2(2) over Brd2(1), from ITC Kd's
Brd2(2) [10] = molecular target: T5, Brd2(2); experiment: Isothermal titration calorimetry (ITC); assay type: binding
Brd4(2) = Brd4(2) (Homo sapiens, UniProt O60885); experiment: Isothermal titration calorimetry (ITC); assay type: binding; details: ITC at 30 °C, […] DMSO
Brd4(1) = Brd4(1) (Homo sapiens, UniProt O60885); experiment: Isothermal titration calorimetry (ITC); assay type: binding; details: ITC at 30 °C, […] DMSO
Brd2(1) [11] = molecular target: T3, Brd2(1); experiment: Isothermal titration calorimetry (ITC); assay type: binding
Brd2(1)L110A [12] = molecular target: T10, Brd2(1)L110A; experiment: Isothermal titration calorimetry (ITC); assay type: binding; details: ITC at 25 °C
Brd2(2)L383I [13] = molecular target: T9, Brd2(2)L383I; experiment: Isothermal titration calorimetry (ITC); assay type: binding; details: ITC at 25 °C
Brd2(2)L383A [14] = molecular target: T11, Brd2(2)L383A; experiment: Isothermal titration calorimetry (ITC); assay type: binding; details: ITC at 25 °C
Brd2(1)L110I [15] = molecular target: T12, Brd2(1)L110I (Homo sapiens, UniProt P25440, L110I); experiment: Differential scanning fluorimetry (DSF) thermal shift; assay type: binding; details: compound 10 μM (LightCycler480) or 30 μM (Mx3005P), read-out: Thermal stabilization (ΔTm)
T12 construct: first bromodomain (e.g., Brd2(1)) versus second bromodomain (e.g., Brd2(2)); His6 (TEV-cleavable) (N); made in house; host or cells: E. coli BL21(DE3)
T12 sequence (P25440 74-180 L110I limits assumed): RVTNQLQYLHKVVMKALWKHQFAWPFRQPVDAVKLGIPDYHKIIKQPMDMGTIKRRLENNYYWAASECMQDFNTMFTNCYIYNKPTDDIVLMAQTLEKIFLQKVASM

Brd2(1)L110I [16] = molecular target: T12, Brd2(1)L110I; experiment: Isothermal titration calorimetry (ITC); assay type: binding; details: ITC at 25 °C

SMILES	ΔTm at 10 µM (Brd2(1)W097F) [°C]	ΔTm at 10 µM (Brd2(1)W097H) [°C]	ΔTm at 10 µM (Brd2(1) [1]) [°C]	ΔTm at 10 µM (Brd2(2)W370F) [°C]	ΔTm at 10 µM (Brd2(2) [2]) [°C]	ΔTm at 10 µM (Brd2(2)W370H) [°C]	further results
COC(=O)CC1N=C(c2ccc(Cl)c(C)c2)c2cc(OC)ccc2-n2c(C)nnc21 (stereo not drawn) [compound 25]	-0.1	0.2 ± 0.2	1.5 ± 0.2	1.5	3.2 ± 0.1	1 ± 0.3	–
COC(=O)CC1N=C(c2cc(Cl)ccc2Cl)c2cc(OC)ccc2-n2c(C)nnc21 (stereo not drawn) [compound 27]	0	-0.4	1.2 ± 0.2	0.3	2.5 ± 0.2	-0.4	–
CC[C@@H](C(=O)OC)[C@@H]1N=C(c2ccc(Cl)cc2)c2cc(OC)ccc2-n2c(C)nnc21 [ET (6)]	–	–	–	–	–	–	selectivity for L/A mutants relative to WT BET bromodomains, average ([3]; average across the entire subfamily): 160 fold; affinity for leucine/alanine mutant BET bromodomains ([3]; in words): low nanomolar affinity
CC(=O)NCCCCn1c2c(c3ccccc31)C(=O)NCC2 [olinone]	–	–	–	–	–	–	Kd (Brd2(2) [4]): > 300000 nM
COC(=O)CC1N=C(c2cc(C)ccc2C)c2cc(OC)ccc2-n2c(C)nnc21 (stereo not drawn) [compound 26]	0.1 ± 0.2	-0.4	1.8 ± 0.2	0.6 ± 0.1	3.5 ± 0.1	-0.1	–
COC(=O)CC1N=C(c2ccc(Cl)cc2)c2cc(OC)cc(C)c2-n2c(C)nnc21 (stereo not drawn) [compound 15]	–	–	0.7 ± 0.2	–	4 ± 0.1	–	ΔTm at 10 µM (Brd2(2)V376A): 1.2 ± 0.1 °C; ΔTm at 10 µM (Brd2(1)V103A): 0.5 ± 0.3 °C
COC(=O)CC1N=C(c2ccc(Cl)cc2C)c2cc(OC)ccc2-n2c(C)nnc21 (stereo not drawn) [compound 24]	1.4 ± 0.2	0.9 ± 0.3	6.3 ± 0.1	2.8 ± 0.1	6.6 ± 0.2	1.1 ± 0.2	–
COC(=O)[C@@H](C)[C@@H]1N=C(c2ccc(Cl)cc2)c2cc(OC)ccc2-n2c(C)nnc21 [compound 16]	–	–	-0.3	–	0.2 ± 0.2	–	thermal stabilization, in words [5]: did not induce a significant stabilization; ΔTm at 10 µM (Brd2(2)L383I [6]): 0.3 ± 0.2 °C; ΔTm at 10 µM (Brd2(1)L110A [7]): 1.6 ± 0.2 °C; ΔTm at 10 µM (Brd2(2)L383A [8]): 0.8 ± 0.6 °C
COC(=O)CC1N=C(c2cccc3[nH]ccc23)c2cc(OC)ccc2-n2c(C)nnc21 (stereo not drawn) [compound 28]	1.9 ± 0.5	0.6 ± 0.3	6.8 ± 0.6	5.2 ± 0.1	7.7 ± 0.2	2.7 ± 0.4	selectivity for the second over the first bromodomain (Brd2(2) [9]): ca. 20 fold; Kd (Brd2(2) [10]; ITC at 30 °C, […] DMSO): 45 nM; Kd (Brd4(2)): 50 nM; Kd (Brd4(1)): 520 nM; Kd (Brd2(1) [11]; ITC at 30 °C, […] DMSO): 780 nM
COC(=O)[C@H](C)[C@@H]1N=C(c2ccc(Cl)cc2)c2cc(OC)ccc2-n2c(C)nnc21 [ME]	–	–	3.2 ± 0.2	–	5.6 ± 0.1	–	Kd (Brd2(2) [10]; ITC at 25 °C): 300 ± 80 nM; ΔH (binding enthalpy) (Brd2(2) [10]; ITC at 25 °C): –5.4 ± 0.1 kcal/mol; Kd (Brd2(1) [11]; ITC at 25 °C): 1470 ± 180 nM; ΔH (binding enthalpy) (Brd2(1) [11]; ITC at 25 °C): –8.6 ± 0.2 kcal/mol; Kd (Brd2(1)L110A [12]): 17 ± 4 nM; ΔH (binding enthalpy) (Brd2(1)L110A [12]): –16.8 ± 0.2 kcal/mol; ΔTm at 10 µM (Brd2(2)L383I [6]): 9.6 ± 0.1 °C; Kd (Brd2(2)L383I [13]): 27 ± 12 nM; ΔH (binding enthalpy) (Brd2(2)L383I [13]): –9.8 ± 0.1 kcal/mol; ΔTm at 10 µM (Brd2(1)L110A [7]): 7.9 ± 0.2 °C; ΔTm at 10 µM (Brd2(2)L383A [8]): 9.3 ± 0.2 °C; Kd (Brd2(2)L383A [14]): 22 ± 4 nM; ΔH (binding enthalpy) (Brd2(2)L383A [14]): –12.6 ± 0.1 kcal/mol; ΔTm at 10 µM (Brd2(1)L110I [15]): 5.7 ± 0.7 °C; Kd (Brd2(1)L110I [16]): 260 ± 40 nM; ΔH (binding enthalpy) (Brd2(1)L110I [16]): –8.5 ± 0.1 kcal/mol
